Reference: ChEMBL document CHEMBL1153460, “Potent aza-peptide derived inhibitors of HCV NS3 protease” (Bioorg Med Chem Lett, 2009)
Activity calls are given as the source filed them. No cut-off for these calls is given here. Starred links: 1 amine or outer side, 2 acyl side, 3 side chain; linkers in the order of their positions; H or OH if unused. Non-standard residues stand in square brackets, D forms with d. Residues, ends and D or L forms follow the SMILES beside them. *: point of attachment. Pro(4R-OPh) = O=C(O)[C@@H]1C[C@@H](Oc2ccccc2)CN1; NH(1R-phenylethyl) = C[C@@H](N*)c1ccccc1; azaNva = CCCN(N[*:1])C(=O)[*:2]; Aad = N[C@@H](CCCC(=O)O)C(=O)O; Tle = CC(C)(C)[C@H](N)C(=O)O

Columns and labels:
Hepatitis C virus = experiment: Antiviral activity against HCV by replicon-based cellular assay; type: functional
[1] = Inhibition of HCV NS3 protease by continuous spectrophotometric assay; set-up: species or system Hepacivirus hominis
[2] = Selectivity ratio, Ki for human neutrophil elastase to Ki for HCV NS3 protease

CCCN(NC(=O)[C@@H]1[C@@H]2[C@H](CN1C(=O)[C@@H](NC(=O)N[C@H](CN(C)S(=O)(=O)c1cccnc1)C(C)(C)C)C1CCCCC1)C2(C)C)C(=O)N[C@H](C)c1ccccc1
EC90 (Hepatitis C virus; Hepacivirus hominis): inactive
Ki [1]: 230 nM

CCCN(NC(=O)[C@@H]1[C@@H]2[C@H](CN1C(=O)[C@@H](NC(=O)N[C@H](CN(C)S(C)(=O)=O)C(C)(C)C)C(C)(C)C)C2(C)C)C(=O)N[C@H](C)c1ccccc1
EC90 (Hepatitis C virus): 700 nM
Ki [1]: 110 nM

CCCN(NC(=O)[C@@H]1[C@@H]2[C@H](CN1C(=O)[C@@H](NC(=O)N[C@H](CN1C(=O)C3CCC(C3)C1=O)C(C)(C)C)C(C)(C)C)C2(C)C)C(=O)N[C@H](C)c1ccccc1
EC90 (Hepatitis C virus): 250 nM
Ki [1]: 32 nM

CC(C)(C)NC(=O)N[C@H](C(=O)N1C[C@H]2[C@@H]([C@H]1C(=O)NC(CC1CCC1)C(=O)C(N)=O)C2(C)C)C(C)(C)C (stereo not given in full) [BOCEPREVIR]
EC90 (Hepatitis C virus): 350 nM
Ratio Ki [2]: 2200
Ki [1]: 14 nM

CCCN(NC(=O)[C@@H]1C[C@@H](Oc2ccccc2)CN1C(=O)[C@@H](NC(=O)[C@@H](NC(=O)[C@H](CCCC(=O)O)NC(=O)[C@H](CCCC(=O)O)NC(C)=O)C(C)C)C(C)(C)C)C(=O)N[C@H](C)c1ccccc1 (Ac-[Aad][Aad]V[Tle][Pro(4R-OPh)][azaNva]-{NH(1R-phenylethyl)})
Ki [1]: 78 nM

CCCN(NC(=O)[C@@H]1[C@@H]2[C@H](CN1C(=O)[C@@H](NC(=O)N[C@H](CN1C(=O)C3CCC(C3)C1=O)C(C)(C)C)C(C)(C)C)C2(C)C)C(=O)NC1CC1
EC90 (Hepatitis C virus): 6000 nM
Ki [1]: 750 nM

CCCN(NC(=O)[C@@H]1[C@@H]2[C@H](CN1C(=O)[C@@H](NC(=O)N[C@H](CN1C(=O)C3CCC(C3)C1=O)C(C)(C)C)C(C)(C)C)C2(C)C)C(=O)Nc1ccccc1
EC90 (Hepatitis C virus): 2400 nM
Ki [1]: 950 nM

CCCN(NC(=O)[C@@H]1[C@@H]2[C@H](CN1C(=O)[C@@H](NC(=O)N[C@H](CN1C(=O)C3CCC(C3)C1=O)C(C)(C)C)C(C)(C)C)C2(C)C)C(C)=O
EC90 (Hepatitis C virus; Hepacivirus hominis): inactive
Ki [1]: 22000 nM

C[C@@H](NC(=O)N(CC1CC1)NC(=O)[C@@H]1[C@@H]2[C@H](CN1C(=O)[C@@H](NC(=O)N[C@H](CN1C(=O)CC(C)(C)CC1=O)C(C)(C)C)C(C)(C)C)C2(C)C)c1ccccc1
EC90 (Hepatitis C virus; Hepacivirus hominis): inactive
Ki [1]: 200 nM

CCCN(NC(=O)[C@@H]1[C@@H]2[C@H](CN1C(=O)[C@@H](NC(=O)N[C@H](CN1C(=O)C3CCC(C3)C1=O)C(C)(C)C)C(C)(C)C)C2(C)C)C(=O)NC(C)(C)C
EC90 (Hepatitis C virus): 8000 nM
Ki [1]: 1600 nM

CCCN(NC(=O)[C@@H]1[C@@H]2[C@H](CN1C(=O)[C@@H](NC(=O)N[C@H](CN1C(=O)C3CCC(C3)C1=O)C(C)(C)C)C(C)(C)C)C2(C)C)C(=O)C1CC1
EC90 (Hepatitis C virus): 15000 nM
Ki [1]: 3000 nM

CCCN(NC(=O)[C@@H]1[C@@H]2[C@H](CN1C(=O)[C@@H](NC(=O)N[C@H](CN1C(=O)C3CCC(C3)C1=O)C(C)(C)C)C(C)(C)C)C2(C)C)C(=O)OC(C)(C)C
EC90 (Hepatitis C virus): 24000 nM
Ki [1]: 3100 nM

CCCN(NC(=O)[C@@H]1[C@@H]2[C@H](CN1C(=O)[C@@H](NC(=O)N[C@H](CN1C(=O)C3CCC(C3)C1=O)C(C)(C)C)C(C)(C)C)C2(C)C)C(=O)NC1CCCCC1
EC90 (Hepatitis C virus): 16000 nM
Ki [1]: 1300 nM

CCCN(NC(=O)[C@@H]1[C@@H]2[C@H](CN1C(=O)[C@@H](NC(=O)N[C@H](CN1C(=O)C3CCC(C3)C1=O)C(C)(C)C)C(C)(C)C)C2(C)C)C(=O)CCc1ccccc1
EC90 (Hepatitis C virus): 3500 nM
Ki [1]: 720 nM

CCCN(NC(=O)[C@@H]1[C@@H]2[C@H](CN1C(=O)[C@@H](NC(=O)N[C@H](CN1C(=O)CC(C)(C)CC1=O)C(C)(C)C)C(C)(C)C)C2(C)C)C(=O)N[C@H](C)c1ccccc1
EC90 (Hepatitis C virus): 300 nM
Ratio Ki [2]: 960
Ki [1]: 64 nM

C[C@@H](NC(=O)N(CC1CC1)NC(=O)[C@@H]1[C@@H]2[C@H](CN1C(=O)[C@@H](NC(=O)N[C@H](CN1C(=O)C3CCC(C3)C1=O)C(C)(C)C)C(C)(C)C)C2(C)C)c1ccccc1
EC90 (Hepatitis C virus): 1100 nM
Ki [1]: 250 nM

CCCN(NC(=O)[C@@H]1[C@@H]2[C@H](CN1C(=O)[C@@H](NC(=O)N[C@H](CN1C(=O)C3CCC(C3)C1=O)C(C)(C)C)C(C)(C)C)C2(C)C)C(=O)c1ccccc1
EC90 (Hepatitis C virus; Hepacivirus hominis): inactive
Ki [1]: 52000 nM
